Test results taken from patent US8487096B2, “Imidazo[1,2-B][1,2,4]triazines as C-MET inhibitors” (Incyte Corporation, priority 2010, dated 2013).

The compounds below were run against c-Met kinase (histidine-tagged c-Met catalytic domain fusion protein) (Homo sapiens (Human), UniProt P08581) (assay: In Vitro c-Met Kinase Enzyme Assays). Details: inhibition of c-Met kinase; phosphorylation of poly Glu-Tyr, 5 μM ATP, 25 minutes at 30° C.
Type: biochemical
Method: The compounds of the invention were screened in vitro for their ability to inhibit c-Met kinase activity. The IC50 values for the inhibition of c-Met kinase were determined as described in the literature with some modifications (Wang, X. et al, Mol. Cancer. Ther. 2003, 2(11):1085-1092; Calic, M. et al., Croatica Chemical ACTA. 2005, 78(3):367-374). Briefly, histidine-tagged c-Met catalytic domain fusion protein (Invitrogen, # PV3143) was used for the assay. IC50 measurements were based on the degree of phosphorylation of poly Glu-Tyr (Sigma-Aldrich, # PO275) that was coated (0.01 mg/per well) on 96-well microplates (R&D systems, # DY990). The reaction was carried out in a 50 μL solution containing 50 mM HEPES (pH 7.5), 10 mM MnCl2, 10 mM MgCl2, 0.5 mM DTT, 100 μM Na3VO4, 5 μM ATP (Cell Signaling Technology, #9804) and serial dilutions of the test compound. The reaction lasted for 25 minutes at 30° C. After the reaction was completed, the contents of the plates were discarded. Plates were then washed with TBS-T (250 μL/well, 5×) and then blocked with TBS-T containing 1% BSA for 2 hours. The contents of the plates was discarded, and 100 μL (per well) of peroxidase-labeled anti-phospho-tyrosine antibody (Sigma, # A5964) diluted (1:60,000) in 1% BSA containing TBS-T were then added and incubated for 1 hour. Plates were washed with TBS-T (250 μL/well, 5×) and followed by the color reaction using 100 μL (1:1 mixture) of H2O2 and tetramethylbenzidine (R&D Systems, # DY999). The reaction was stopped in minutes with […] of 2 N H2SO4. The optical density was measured immediately using a microplate reader at 450 nm with wavelength correction at 540 nm. IC50 values were calculated with the GraphPad Prism software. The linear range (i.e., the time period over which the rate remained equivalent to the initial rate) was determined for the kinase and IC50 determinations were performied within this range.

Sequence of c-Met kinase (histidine-tagged c-Met catalytic domain fusion protein) (P08581 1078-1345): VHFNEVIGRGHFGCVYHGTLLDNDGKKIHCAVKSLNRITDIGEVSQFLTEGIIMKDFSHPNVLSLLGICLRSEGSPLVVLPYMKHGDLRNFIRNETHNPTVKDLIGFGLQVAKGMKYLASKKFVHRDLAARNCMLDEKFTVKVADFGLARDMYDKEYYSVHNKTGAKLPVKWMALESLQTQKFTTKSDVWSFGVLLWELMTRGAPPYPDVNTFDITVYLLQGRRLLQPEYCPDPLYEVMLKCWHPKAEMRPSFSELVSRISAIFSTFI

Which IC50 does the source give for `C[C@@H](O)CNC(=O)c1ccc(-c2cnc3ncc(Cc4ccc5ncccc5c4)n3n2)cc1F` [Formula I, 2-fluoro-N-[(2R)-2-hydroxypropyl]-4-[7-(quinolin-6-ylmethyl)imidazo[1,2-b][1,2,4]triazin-2-yl]benzamide] here?
Its IC50 is 100 to 1000 pM.

How did the IC50 turn out when `CNC(=O)c1ccc(-c2cnc3ncc(Cc4ccc5ncccc5c4)n3n2)cc1Cl` [Formula II, 2-chloro-N-methyl-4-(7-(quinolin-6-ylmethyl)imidazo[1,2-b][1,2,4]triazin-2-yl)benzamide] was run?
Its IC50 is 100 to 1000 pM.

For `Cc1nc([C@H](C)NC(=O)c2ccc(-c3cnc4ncc(Cc5ccc6ncccc6c5)n4n3)cc2Cl)no1` [Formula III, 2-chloro-N-[(1S)-1-(5-methyl-1,2,4-oxadiazol-3-yl)ethyl]-4-[7-(quinolin-6-ylmethyl)imidazo[1,2-b][1,2,4]triazin-2-yl]benzamide], which IC50 is on record?
Its IC50 is 100 to 1000 pM.

Which IC50 does the source give for `CNC(=O)c1ccc(-c2cnc3ncc(Cc4ccc5ncccc5c4)n3n2)cn1` [Formula IV, N-methyl-5-[7-(quinolin-6-ylmethyl)imidazo[1,2-b][1,2,4]triazin-2-yl]pyridine-2-carboxamide] here?
The IC50 was 100 to 1000 pM.

With `CNC(=O)c1ccc(-c2cnc3ncc(Cc4ccc5ncccc5c4)n3n2)cc1C` [Formula V, N,2-dimethyl-4-[7-(quinolin-6-ylmethyl)imidazo[1,2-b][1,2,4]triazin-2-yl]benzamide] as the compound, how does the IC50 read?
Its IC50 is 100 to 1000 pM.
